In patent publication US5552427A, “Glutaminase inhibitory compounds, compositions, and methods of use” (Takeda Chemical Industries, Ltd., priority 1993, dated 1996):
pIC50: −log10 of the molar value. In brackets after ≈: the same amount, converted by molar mass. Counter-ions that a name gives are not always drawn. Like-named read-outs stand apart in the source and are kept apart here.

Tests used:
[1] = biological target: T1, mitochondrial membrane enzyme glutaminase (Homo sapiens, UniProt O94925); experiment: Inhibitory activity against the mitochondrial membrane enzyme glutaminase (crude enzyme of WiDr cells); assay type: biochemical; details: WiDr mitochondrial fraction, tritium-labelled glutamine 0.8 μM, phosphoric acid 200 mM, pH 8.0, 37° C., 15 minutes; read-out: IC50, enzymatic activity of glutaminase
T1 sequence (O94925 73-669 limits assumed): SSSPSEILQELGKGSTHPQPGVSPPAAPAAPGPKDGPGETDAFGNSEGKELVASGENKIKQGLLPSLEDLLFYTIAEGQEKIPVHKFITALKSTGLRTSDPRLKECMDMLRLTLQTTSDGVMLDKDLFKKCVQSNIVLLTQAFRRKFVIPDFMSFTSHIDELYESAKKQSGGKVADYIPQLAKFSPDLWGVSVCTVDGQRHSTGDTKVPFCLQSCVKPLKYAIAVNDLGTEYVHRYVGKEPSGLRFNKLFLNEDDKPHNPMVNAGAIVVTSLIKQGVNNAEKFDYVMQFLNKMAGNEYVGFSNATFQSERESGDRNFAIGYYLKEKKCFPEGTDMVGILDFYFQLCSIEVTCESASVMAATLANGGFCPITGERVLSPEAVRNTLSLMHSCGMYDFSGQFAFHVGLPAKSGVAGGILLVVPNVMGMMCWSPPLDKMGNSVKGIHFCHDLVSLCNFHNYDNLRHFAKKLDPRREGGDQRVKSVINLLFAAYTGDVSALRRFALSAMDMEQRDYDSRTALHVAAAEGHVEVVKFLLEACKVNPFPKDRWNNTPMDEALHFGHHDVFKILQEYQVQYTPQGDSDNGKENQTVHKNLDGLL

[2] = tested on: human normal fetal pulmonary fibroblasts HEL; experiment: In vitro cell proliferation inhibitory activity (Table 1), normal cells HEL, MTT; assay type: cell-based; details: Pulmonary fibroblast, 72 h, read-out: IC50, Normal cells HEL
[3] = tested on: human colon carcinoma cells WiDr; experiment: In vitro cell proliferation inhibitory activity (Table 1), colon carcinoma cells WiDr, MTT; assay type: cell-based; details: 72 h, read-out: IC50, Colon carcinoma cells WiDr
Colon carcinoma SW403 = experiment: Cell proliferation inhibitory test (Table 2); assay type: cell-based; details: Homo sapiens, SW-403; Colon carcinoma SW403 (Table 2); read-out: IC50, cell strain SW403
Protocol: (§1) to that in the control group was calculated, and the IC50 (i.e., a compound concentration required for decreasing the surviving cell amount to 50% of that in the control group) was calculated.

Colon carcinoma SW620 = experiment: Cell proliferation inhibitory test (Table 2); assay type: cell-based; details: Homo sapiens, SW-620; Colon carcinoma SW620 (Table 2); read-out: IC50, cell strain SW620
Protocol: as §1

Colon carcinoma LoVo = experiment: Cell proliferation inhibitory test (Table 2); assay type: cell-based; details: Homo sapiens; Colon carcinoma LoVo (Table 2); read-out: IC50, cell strain LoVo
Protocol: as §1

Colon carcinoma WiDr = experiment: Cell proliferation inhibitory test (Table 2); assay type: cell-based; details: Homo sapiens; Colon carcinoma WiDr (Table 2); read-out: IC50, cell strain WiDr
Protocol: as §1

Colon carcinoma SW948 = experiment: Cell proliferation inhibitory test (Table 2); assay type: cell-based; details: Homo sapiens; Colon carcinoma SW948 (Table 2); read-out: IC50, cell strain SW948
Protocol: as §1

Colon carcinoma T84 = experiment: Cell proliferation inhibitory test (Table 2); assay type: cell-based; details: Colon carcinoma T84 (Table 2); read-out: IC50, cell strain T84
Protocol: as §1

Breast carcinoma T-47D = experiment: Cell proliferation inhibitory test (Table 2); assay type: cell-based; details: Homo sapiens, T47D; Breast carcinoma T-47D (Table 2); read-out: IC50, cell strain T-47D
Protocol: as §1

Breast carcinoma SK-BR-3 = experiment: Cell proliferation inhibitory test (Table 2); assay type: cell-based; details: Homo sapiens; Breast carcinoma SK-BR-3 (Table 2); read-out: IC50, cell strain SK-BR-3
Protocol: as §1

[4] = tested on: Breast carcinoma MDA-MB-231; experiment: Cell proliferation inhibitory test (Table 2); assay type: cell-based; details: Homo sapiens; Breast carcinoma MDA-MB-231 (Table 2); read-out: IC50, cell strain MDA-MB-231
Protocol: as §1

Breast carcinoma Hs578T = experiment: Cell proliferation inhibitory test (Table 2); assay type: cell-based; details: Homo sapiens, Hs-578T; Breast carcinoma Hs578T (Table 2); read-out: IC50, cell strain Hs578T
Protocol: as §1

Throat cancer KB = experiment: Cell proliferation inhibitory test (Table 2); assay type: cell-based; details: Throat cancer KB (Table 2); read-out: IC50, cell strain KB
Protocol: as §1

Colon carcinoma SW48 = experiment: Cell proliferation inhibitory test (Table 2); assay type: cell-based; details: Homo sapiens; Colon carcinoma SW48 (Table 2); read-out: IC50, cell strain SW48
Protocol: as §1

Lung carcinoma A549 = experiment: Cell proliferation inhibitory test (Table 2); assay type: cell-based; details: Homo sapiens; Lung carcinoma A549 (Table 2); read-out: IC50, cell strain A549
Protocol: as §1

Colon carcinoma LS180 = experiment: Cell proliferation inhibitory test (Table 2); assay type: cell-based; details: Homo sapiens; Colon carcinoma LS180 (Table 2); read-out: IC50, cell strain LS180
Protocol: as §1

[5] = tested on: Breast carcinoma MDA-MB-453; experiment: Cell proliferation inhibitory test (Table 2); assay type: cell-based; details: Homo sapiens; Breast carcinoma MDA-MB-453 (Table 2); read-out: IC50, cell strain MDA-MB-453
Protocol: as §1

[6] = tested on: human colon carcinoma cells WiDr transplanted to nude mice; experiment: In vivo colon carcinoma inhibitory activity, WiDr transplanted to nude mice (Test Example 3); design: species or system human cells in Balb/C female nude mice; details: oral; for Proliferation rate (tumor volume, treated/control): 3 times a day for 3 days, control = 100
Protocol: In vivo colon carcinoma inhibitory activity
The human colon carcinoma cells WiDr (5,000,000 cells) were subcutaneously transplanted to a thoracic part of each of Balb/C female nude mice (7 weeks of age). On the 5th day after the transplantation, the tumor size was measured. Five mice (per group) with almost the same tumor size were used for this experiment. Each of solutions of 2-amino-1-methylimidazole hydrochloride (50 mg/kg body weight, 100 mg/kg body weight and 200 mg/kg body weight) of the present invention in physiological saline was orally administered 3 times a day for 3 days. The day following the end of the administration, the tumor size was measured. The tumor volume was calculated from the following equation:
(§2) Tumor volume=(major axis)×(minor axis)×(minor axis)×(1/2)
(§3) The ratio of the tumor volume in the treated group to that in a control group to which physiological saline was administered was calculated as a proliferation rate.

[7] = tested on: large intestinal cancer cell strains; experiment: Cell proliferation inhibitory tests, panel as a whole (selectivity in words); assay type: cell-based, human; details: large intestinal cancer cells / tumor cells
Protocol: A cellular suspension (50 μl, 2,000 cells) of the human colon carcinoma cells WiDr or human normal fetal pulmonary fibroblasts HEL was inoculated in a 96-well microplate, and incubated at 37° C. in a 5% carbonic acid gas incubator. The next day, a 2-fold serially diluted solution (50 μl) of each compound was added and incubated for 3 days. The culture broth containing the compound was removed, the cells were washed, MTT pigment solution was added, and the surviving cell number was determined (Tada et al., J. Immunol. Methods, 93, 157-165 (1986)). The cell amount in a control group not treated with the compound solution was used as a standard (100%). The ratio of the cell amount in each treated group to that in the control group was calculated, and the IC50 (i.e., a compound concentration required for decreasing the surviving cell amount to 50% of that in the control group) was calculated.
as §1

[8] = tested on: human colon carcinoma cells WiDr transplanted to nude mice; experiment: Activity of a compound having a protective group at the 2-amino group, WiDr transplanted to nude mice (Test Example 4); assay type: in vivo, human cells in Balb/C female nude mice; details: oral
Protocol: Activity of a compound having a protective group at the 2-amino group
The human colon carcinoma cells WiDr (5,000,000 cells) were subcutaneously transplanted to the thoracic parts of Balb/C female nude mice (7 weeks old). On the 5th day after the transplantation, the tumor cell size was measured. Five mice (per group) with almost the same tumor size were used for this experiment. A solution of 2-benzyloxycarbonylamino-1-methylimidazole hydrochloride (80 mg/kg body weight) of the present invention in physiological saline was orally administered 3 times a day for 3 days. The day following the end of the administration, the tumor cell size was measured. The tumor volume was calculated from the following equation:
as §2, §3

[9] = HEL, 3 days incubation, MTT (Table 1)
[10] = 3 days incubation, MTT (Table 1)

With `CCn1ccnc1N.Cl` [2-Amino-1-ethylimidazole hydrochloride] as the compound, how does the pIC50 [1] read?
Its pIC50 is 1.30.

And the IC50 [2, 9]?
Its IC50 is > 80 µg/mL.

What about the IC50 [3, 10] of the same compound?
The IC50 was 4.4 µg/mL.

`Cl.Cn1ccnc1N` [2-Amino-1-methylimidazole hydrochloride] was tested. Which IC50 (Colon carcinoma SW403) did it give?
Its IC50 is 5.2 µg/mL.

And the IC50 (Colon carcinoma SW620)?
Its IC50 is 11 µg/mL.

What about the IC50 (Colon carcinoma LoVo) of the same compound?
Its IC50 is 7.6 µg/mL.

What about the IC50 (Colon carcinoma WiDr) of the same compound?
The IC50 was 1.1 µg/mL.

What about the IC50 (Colon carcinoma SW948) of the same compound?
Its IC50 is 3.9 µg/mL.

And the IC50 (Colon carcinoma T84)?
The IC50 was 2.8 µg/mL.

What about the IC50 (Breast carcinoma T-47D) of the same compound?
The IC50 was 13 µg/mL.

What about the IC50 (Breast carcinoma SK-BR-3) of the same compound?
Its IC50 is > 80 µg/mL.

And the IC50 [4]?
The IC50 was > 80 µg/mL.

And the IC50 (Breast carcinoma Hs578T)?
The IC50 was 7 µg/mL.

What about the IC50 (Throat cancer KB) of the same compound?
Its IC50 is > 80 µg/mL.

What about the IC50 (Colon carcinoma SW48) of the same compound?
The IC50 was 8.6 µg/mL.

What about the IC50 (Lung carcinoma A549) of the same compound?
The IC50 was 20 µg/mL.

And the IC50 (Colon carcinoma LS180)?
Its IC50 is 6.3 µg/mL.

And the IC50 [5]?
Its IC50 is > 80 µg/mL.

And the pIC50 [1]?
The pIC50 was 1.52.

What about the IC50 [2, 9] of the same compound?
Its IC50 is > 80 µg/mL.

What about the IC50 [3, 10] of the same compound?
The IC50 was 1.1 µg/mL.

And the “Proliferation rate (tumor volume, treated/control)” value ([6]; 50 mg/kg)?
Its value is 76%.

And the “Proliferation rate (tumor volume, treated/control)” value ([6]; 100 mg/kg)?
Its value is 64%.

And the “Proliferation rate (tumor volume, treated/control)” value ([6]; 200 mg/kg)?
Its value is 49%.

And the “Inhibition of proliferation of transplanted WiDr (in words)” value ([6]; nude mice)?
The value was “inhibited the proliferation of the human colon carcinoma cell strain WiDr transplanted to the nude mice in a concentration-dependent manner”.

And the “Selective inhibition of proliferation (in words)” value [7]?
Its value is “selectively inhibits the proliferation of the large intestinal cancer cell strains”.

With `CN1CCN=C1N` [2-Amino-1-methylimidazoline hydrochloride] as the compound, how does the pIC50 [1] read?
The pIC50 was 1.00.

What about the IC50 [2, 9] of the same compound?
Its IC50 is > 80 µg/mL.

And the IC50 [3, 10]?
The IC50 was 1.4 µg/mL.

Which IC50 [2] does the source give for `Nc1ncc[nH]1.O=S(=O)(O)O` [2-Aminoimidazole sulfate] here?
The IC50 was > 80 µg/mL.

What about the IC50 [3] of the same compound?
Its IC50 is 12 µg/mL.

`C=CCn1ccnc1N.Cl` [Example 1, 2-amino-1-(2-propenyl)imidazole hydrochloride] was tested. Which IC50 [2, 9] did it give?
Its IC50 is > 80 µg/mL.

What about the IC50 [3, 10] of the same compound?
Its IC50 is 4.2 µg/mL.

How did the “Proliferation rate (tumor volume, treated/control)” value ([8]; 80 mg/kg, 3 times a day for 3 days, control = 100) turn out when `Cn1ccnc1NC(=O)OCc1ccccc1` [Example 4, 2-benzyloxycarbonylamino-1-methylimidazole hydrochloride] was run?
Its value is 70%.

What about the “Inhibition of proliferation of transplanted WiDr (in words)” value ([8]; nude mice) of the same compound?
Its value is “inhibited the proliferation of the human large intestinal cancer cell strain WiDr transplanted to nude mice”.

With `COC(=O)[C@@H](N)Cn1ccnc1N` [Example 5, 3-(2-aminoimidazol-1-yl)-L-alanine methyl ester dihydrochloride] as the compound, how does the pIC50 [1] read?
The pIC50 was 1.40.

Which IC50 [2, 9] does the source give for `COC(=O)[C@@H](N)CCC(=O)Nc1nccn1C` [Example 8, methyl (2S)-2-amino-4-[(1-methylimiazol-2-yl)carbamoyl]butyrate dihydrochloride] here?
Its IC50 is > 80 µg/mL.

What about the IC50 [3, 10] of the same compound?
Its IC50 is 5 µg/mL.

Which results are given for `Cn1ccnc1NC(=O)CC[C@H](N)C(=O)O` [Example 9, (2S)-2-amino-4-[(1-methylimidazol-2-yl)carbamoyl]butyric acid]?
IC50 [2, 9]: > 80 µg/mL; IC50 [3, 10]: 5 µg/mL (≈ 22.1 µM)

How did the IC50 [2, 9] turn out when `COC(=O)[C@@H](N)CC(=O)Nc1nccn1C.Cl.Cl` [Example 13, methyl (2S)-2-amino-3-[(1-methylimidazol-2-yl)carbamoyl]propionate dihydrochloride] was run?
Its IC50 is > 80 µg/mL.

And the IC50 [3, 10]?
Its IC50 is 11 µg/mL.

How did the IC50 [2, 9] turn out when `Cn1ccnc1N=Cc1ccccc1` [Reference Example 7, N-(1-methylimidazol-2-yl)benzylideneamine] was run?
The IC50 was > 80 µg/mL.

And the IC50 [3, 10]?
The IC50 was 1.4 µg/mL (≈ 7.56 µM).

`COc1ccc(C=Nc2nccn2C)cc1.Cl` [Reference Example 9, N-(1-methylimidazol-2-yl)-4-methoxybenzylideneamine hydrochloride] was tested. Which IC50 [2, 9] did it give?
The IC50 was > 80 µg/mL.

And the IC50 [3, 10]?
Its IC50 is 2.2 µg/mL.
